{
  "source": "paper PMC4007625",
  "about": "“A phase I study of AST1306, a novel irreversible EGFR and HER2 kinase inhibitor, in patients with advanced solid tumors” (Journal of Hematology & Oncology, 2014)",
  "key": {"[1]": {"assay": "clinical", "settings": "human, in vivo; for AUC(0-inf): AUC0-∞", "protocol": "This was the first-in-human phase I dose-escalation study of AST1306 for patients with advanced solid tumors. AST1306 was orally administered without food for one day followed by two days off to evaluate single dose PK profiles. After that, it was continuously administered for 21 days and two days off to assess multiple dose PK profiles and safety. […] Three times daily in three dose levels (800 mg TID, 1000 mg TID and 1200 mg TID) were explored subsequently. Treatment was then repeated at the same dose level in 28-day cycles until unacceptable toxicities, disease progression or the patient’s withdrew from the study. PK extension study was performed to enroll additional patients up to at least eight patients per dose cohort in three dose levels (MTD, one or two doses level lower than the MTD) for further evaluation of PK profiles.\nAll PK sampling was performed in the first cycle. Plasma concentrations of AST1306 single-day dosing were determined at the following distinct time points: pre-dose, 0.5 h, 1 h, 1.5 h, 2 h, 3 h, 4 h, 6 h, 8 h, 10 h, 12 h, 24 h, 36 h, and 48 h after the single dose administration in the 400 mg QD and 800 mg QD dose cohorts. For the next five dose cohorts with twice daily (once every 12 hours) administration, the time points of plasma sample collection were as follows: pre-dose, 0.5 h, 1 h, 1.5 h, 2 h, 3 h, 4 h, 6 h, 8 h, and 12 h after the first dose administration, and pre-dose, 1 h, 2 h, 3 h, 4 h, 6 h, 8 h, 12 h, and 24 h after the second dose administration. Three dose cohorts with three times daily (once every 8 hours) administration were further investigated with distinct time points for plasma collecting (pre-dose, 0.5 h, 1 h, 1.5 h, 2 h, 3 h, 4 h, 6 h, and 8 h after the first dose administration; 1 h, 2 h, 3 h, 4 h, 5 h, 6 h, and 8 h after the second dose administration; 1 h, 2 h, 3 h, 4 h, 8 h, 12 h, 24 h, and 36 h after the third dose administration). PK parameters of AST1306 were also determined on days 10, 23 (pre-dose and 2 h after the first dosing), and 24 (steady state, the same time points as the first-day dosing) of continuous treatment. The PK sampling schedule for the PK extension phase was totally the same as that for the dose escalation study.\nPK analysis was conducted using Phoenix WinNonlin® software (version 6.1, Pharsight, Mountainview, CA). Standard non-compartmental methods were used to calculate the area under the plasma concentration-time curve over the time interval from 0 to 24 h (AUC0–24,ss), maximum measured concentration of the analyte in plasma (Cmax), and terminal half-life of the analyte in plasma (t1/2). Time from dosing to the maximum concentration of the analyte in plasma (tmax,) was reported as a median value. The concentration at the trough level was determined using the concentration at 24 h (C24) on steady state days.\nThe power model method was used to assess the dose proportionality. The differences between fed and fasting conditions were assessed by ANOVA, and 90% confidence intervals for ratios were given."}, "[2]": {"test_system": "EGFR T790M mutant", "set-up": "method as in PMID 21789172, PMID 18408761, PMID 15728811, PMID 15737014, PMID 17085664", "settings": "cited from earlier work"}, "[3]": {"test_system": "human tumor xenograft models that expressed or overexpressed HER family members", "set-up": "method as in PMID 21789172", "settings": "especially HER2 overexpression or EGFR T790M mutant tumors; cited from earlier work"}},
  "data": [
    {"smiles": "C=CC(=O)Nc1ccc2ncnc(Nc3ccc(OCc4cccc(F)c4)c(Cl)c3)c2c1", "note": "[AST1306]", "values": [
      {"measurement": "Tmax", "setting": "[1]", "value": "2.65 (43.8) h"},
      {"measurement": "multiple-dose vs single-dose exposure (mean accumulation ratio R, AUCss day 23–24 / AUC0-24h day 1)", "setting": "[1]", "value": "no more than 3 fold"},
      {"measurement": "t1/2z", "setting": "[1]", "value": "5.56 (51.6) h"},
      {"measurement": "AUC0-24 h", "setting": "[1]; 400 mg", "value": 116, "unit": "ng·h/mL"},
      {"measurement": "AUC0-∞", "setting": "[1]; 400 mg", "value": 119, "unit": "ng·h/mL"},
      {"measurement": "AUC(0-t)", "setting": "[1]; 400 mg", "value": 116, "unit": "ng·h/mL"},
      {"measurement": "Cmax", "setting": "[1]; 400 mg", "value": 22.6, "unit": "ng/mL"},
      {"measurement": "R_AUC (accumulation ratio, AUCss days 23–24 / AUC0-24h day 1)", "setting": "[1]; 400 mg", "value": 2.81},
      {"measurement": "Tmax", "setting": "[1]; 400 mg", "value": 2.00, "unit": "h"},
      {"measurement": "t1/2z", "setting": "[1]; 400 mg", "value": 4.66, "unit": "h"},
      {"measurement": "λz", "setting": "[1]; 400 mg", "value": 0.149, "unit": "h⁻¹"},
      {"measurement": "Cmax3", "setting": "[1]; 600 mg", "value": "64.5 (69.4) ng/mL"},
      {"measurement": "Cmax", "setting": "[1]; 800 mg", "value": "50.0 (16.0) ng/mL"},
      {"measurement": "Cmax2", "setting": "[1]; 800 mg", "value": "74.3 (20.4) ng/mL"},
      {"measurement": "Cmax", "setting": "[1]; 800 mg, Cmax", "value": 67.7, "unit": "ng/mL"},
      {"measurement": "AUC0-24 h", "setting": "[1]; 1000 mg", "value": "696 (57.6) h*ng/mL"},
      {"measurement": "AUC0-∞", "setting": "[1]; 1000 mg", "value": "792 (54.1) h*ng/mL"},
      {"measurement": "AUC(0-t)", "setting": "[1]; 1000 mg", "value": "781 (54.7) h*ng/mL"},
      {"measurement": "Cmax", "setting": "[1]; 1000 mg", "value": "75.0 (52.1) ng/mL"},
      {"measurement": "Cmax3", "setting": "[1]; 1000 mg", "value": "89.7 (42.1) ng/mL"},
      {"measurement": "AUC(0-t)", "setting": "[1]; 1000 mg, AUC0-24 h", "value": 1130, "unit": "ng·h/mL"},
      {"measurement": "AUC(0-t)", "setting": "[1]; 1000 mg, AUC0-t", "value": 1420, "unit": "ng·h/mL"},
      {"measurement": "AUC(0-inf)", "setting": "[1]; 1000 mg", "value": 1430, "unit": "ng·h/mL"},
      {"measurement": "Cmax", "setting": "[1]; 1000 mg, Cmax", "value": 47.3, "unit": "ng/mL"},
      {"measurement": "Cmax", "setting": "[1]; 1200 mg", "value": "50.9 (70.6) ng/mL"},
      {"measurement": "Cmax3", "setting": "[1]; 1200 mg", "value": "210.0 (81.5) ng/mL"},
      {"measurement": "Cmax", "setting": "[1]; 1200 mg, Cmax", "value": 61.9, "unit": "ng/mL"},
      {"measurement": "Cmax2", "setting": "[1]; 1500 mg", "value": "103.0 (25.8) ng/mL"},
      {"measurement": "R_AUC (accumulation ratio, AUCss days 23–24 / AUC0-24h day 1)", "setting": "[1]; 1500 mg", "value": "0.87 (32.0)"},
      {"measurement": "Tmax", "setting": "[1]; 1500 mg", "value": "1.92 (30.5) h"},
      {"measurement": "t1/2z", "setting": "[1]; 1500 mg", "value": "3.48 (12.8) h"},
      {"measurement": "λz", "setting": "[1]; 1500 mg", "value": "0.202 (13.3) 1/h"},
      {"measurement": "AUC(0-t)", "setting": "[1]; 1500 mg, AUC0-24 h", "value": 997, "unit": "ng·h/mL"},
      {"measurement": "AUC(0-t)", "setting": "[1]; 1500 mg, AUC0-t", "value": 1190, "unit": "ng·h/mL"},
      {"measurement": "AUC(0-inf)", "setting": "[1]; 1500 mg", "value": 1200, "unit": "ng·h/mL"},
      {"measurement": "Cmax", "setting": "[1]; 1500 mg, Cmax", "value": 57.1, "unit": "ng/mL"},
      {"measurement": "half-life", "setting": "[1]; gMean terminal half-life", "value": "3.33 to 7.57", "unit": "h"},
      {"measurement": "time to Cmax after oral administration", "setting": "[1]; po", "value": "1.83 to 3.67", "unit": "h"},
      {"measurement": "half-life", "setting": "[1]; t1/2", "value": "3 to 5", "unit": "h"},
      {"measurement": "half-life", "setting": "[1]; terminal half-life", "value": "3.48 to 5.56", "unit": "h"},
      {"measurement": "fold more potent than lapatinib", "setting": "[2]; EGFR T790M mutant", "value": "approximately 500 fold"},
      {"measurement": "IC50", "setting": "[2]; preclinical", "value": "12 ± 2", "unit": "nM"},
      {"measurement": "antitumor activity in xenograft models", "setting": "[3]", "value": "showed antitumor activities"}
    ]}
  ]
}
